According to patent publication US6599507B2, “Composition for the treatment of immune deficiencies and methods for its preparation and use” (Ardenia Investments, Ltd., priority 1998, dated 2003):
Entries after “also recorded” stand apart in the source; their conditions may differ.

B1: Rat AFP: Rat alpha-fetoprotein isolated from neonatal rat serum by immunoaffinity (protein, UniProt P02773 25-611, looked up)
Alpha-fetoprotein: RVLHTNEFGIESTLDSSQCPTEKNMFNVATIVVAQFVQDATKAEVNKMSSDALAAMKENTGDGCLENQLSVFLDEICHETELSNKYGFSGCCNQSGVERHQCLLARKKTAPDSVPPFHFPETAESCPAYEENRAMSINTFIYDVSKRNPFLYAPTILYLAAQYDKAVPACCKADNMEECFQTKRASMAKELREGSMLNEHVCAVIRKFGSRNLQAVLIIKLSQKFPKANITEIRKLALDVAHIHEQCCHGNAMECLQDGESVMTHMCSQQEILSSKTAECCKLPTIELGYCIIHAENGDKPEGLTLNPSEFLGDRNFAQFSSEEKLLFMASFLHEYSRNHPNLPVSVILKTAKSYQEILEKCSQSETPSKCQDNMEEELQKHIQESQALAKQSCNLYQKLGPYYLQNLFLIGYTRKAPQLTSAELIDLTGKMVSIASTCCQLSEEKRSACGEGLADIYIGHLCLRHEANPVNSGINHCCSSSYSNRRLCITSFLRDETYVPPPFSEDKFIFHKDLCQAQGRALQTMKQELLINLVKQKPEMTEEQHAAVTADFSGLLEKCCKDQDQEACFAKEGPKLISKTREALGV
B2: AFP: Alpha-fetoprotein isolated from human cord blood, more than 99% purity (protein, UniProt P02771 19-609, looked up)
Alpha-fetoprotein: RTLHRNEYGIASILDSYQCTAEISLADLATIFFAQFVQEATYKEVSKMVKDALTAIEKPTGDEQSSGCLENQLPAFLEELCHEKEILEKYGHSDCCSQSEEGRHNCFLAHKKPTPASIPLFQVPEPVTSCEAYEEDRETFMNKFIYEIARRHPFLYAPTILLWAARYDKIIPSCCKAENAVECFQTKAATVTKELRESSLLNQHACAVMKNFGTRTFQAITVTKLSQKFTKVNFTEIQKLVLDVAHVHEHCCRGDVLDCLQDGEKIMSYICSQQDTLSNKITECCKLTTLERGQCIIHAENDEKPEGLSPNLNRFLGDRDFNQFSSGEKNIFLASFVHEYSRRHPQLAVSVILRVAKGYQELLEKCFQTENPLECQDKGEEELQKYIQESQALAKRSCGLFQKLGEYYLQNAFLVAYTKKAPQLTSSELMAITRKMAATAATCCQLSEDKLLACGEGAADIIIGHLCIRHEMTPVNPGVGQCCTSSYANRRPCFSSLVVDETYVPPAFSDDKFIFHKDLCQAQGVALQTMKQEFLINLVKQKPQITEEQLEAVIADFSGLLEKCCQGQEQEVCFAEEGQKLISKTRAALGV

How the values were obtained:
random breed male mice = experiment: Acute toxicity, single intravenous injection, method of Litchfield and Wilcoxon; assay type: in vivo, mouse
Procedure: The toxicity of N-AAP was studied in random breed male mice (19-24 g). A water solution of N-AAP was injected once slowly in the tail vein of mice in a range of doses 40-70 mg/kg. Each group of mice included 6 animals, at least The assessment of acute toxicity was carried out according to the method of Litchfield et al. (Litchfield J. T., Wilcoxon F., J. Pharmacol. Exptl. Therap., Vol.96, P. 99-103, 1949).

[1] = system: antibody-forming cells (AFC) in the spleen of mice immunized with sheep erythrocytes; experiment: Humoral immune response: count of antibody-forming cells (AFC) in the spleen according to Cunningham; assay type: in vivo, mouse; conditions: for relative amount of AFC / total AFC amount: CBA mice, i.v., sheep erythrocytes i.p.; for immunogenic / immunostimulating activity, effect on humoral immune response (in words): mice immunized with sheep erythrocytes
Procedure: The influence of AFPIN-AAP complexes as well as their basic components on humoral immune response was estimated by counting the quantity of antibody-forming cells (AFC) in the spleen.
AFP was administered intravenously to 10 mouse males of CBA line (weight 18-22 g) in a dose of 0.009 mg per capita. Simultaneously 5% sheep erythrocytes suspension was injected peritoneally (0.2 ml per capita) to both control and experimental animals. The control animals were also injected with the equal volume of NaCl isotonic solution intravenously.
The effect of AFP on humoral immune response was analyzed by counting the quantity of AFC in the spleen according to Cunningham (Cunningham A. J., Nature, v.207, p. 1106-1107, 1965) (per 10^6 spleen cells and per spleen).
N-AAP was administered intravenously to 10 mouse males of CBA line (weight 18-22 g) in a dose of 0.09 mg per capita Simultaneously 5% sheep erythrocytes suspension was injected peritoneally (0.2 ml per capita). Control series were injected with 0.15 ml NaCl isotonic solution intravenously. The effect of N-AAP on humoral immune response was analysed by counting the quantity of AFC in the spleen according to Cunningham (per 10^6 spleen cells and per spleen).
(§1) 0.15 ml AFP/N-AAP complex was administered intravenously to 10 mouse males of CBA line (weight 18-22 g) in a dose of 0.009 mg AFP and 0.09 mg N-AAP per capita. Simultaneously 5% sheep erythrocytes suspension was injected peritoneally (0.2 ml per capita). Control series were intravenously injected with equal volumes of NaCl isotonic solution. The effect of the AFP/N-AAP complex on humoral immune response was analyzed by counting the quantity of AFC in the spleen according to Cunningham (per 10^6 spleen cells and per spleen).
as §1, with “0.045” for “0.09”
as §1, with “0.135” for “0.09”, “capita)” for “capita).”
In order to determine the effect of the inventive complex, 0.15 ml AFP/N-AAP complex was administered intravenously to 10 mouse males of CBA line (weight 18-22 g) in the dose of 0.009 mg rat AFP and 0.09 mg N-AAP per capita. Simultaneously 5% sheep erythrocytes suspension was injected peritoneally (0.2 ml per capita). Control series were injected intravenously with equal volumes of isotonic NaCl solution. The effect of rat AFP/N-AAP complex on humoral immune response was analyzed by counting the quantity of AFC in the spleen according to Cunningham (per 10^6 spleen cells and per spleen).

human AFP = biological target: T1, human AFP (Homo sapiens, UniProt P02771); experiment: Competitive substitution of [3H]arachidonic acid from the AFP binding site (Scatchard)
T1 construct: from tissue; host or cells: human cord blood
Procedure: To determine N-AAP affinity to human AFP a competitive substitution of [5, 6, 8, 9, 11, 12, 14, 15-^3H] arachidonic from the protein's binding site was used. To tubes containing 0.05 nM AFP in 1 ml 0.1 M bicarbonate buffer and 0.7 nM [3H] arachidonic acid and the increasing amounts of arachidonic acid or N-AAP (5-5000 nM) were added. The tubes were incubated for 2 hr at room temperature. To separate protein-bound and free fractions of [3H] arachidonic acid 0.5 ml of 0.5% suspension of activated carbon was added to each tube and incubated at 4° C. for 30 min. The carbon was sedimented by centrifugation at 3000 g, aliquots were added to 10 ml scintillating mixture and the vials were measured in beta-counter.
The binding parameters of arachidonic acid and N-AAP and the number of binding sites per protein molecule were calculated according to Scatchard (Scatchard O., Ann. N.Y. Acad. Sci. 51., p 660-664, 1949).

[2] = mice, single i.v. injection in tail vein

Molecule | DL10 (random breed male mice; [2]) | DL90 (random breed male mice; [2]) | DL50 (random breed male mice; mice, single i.v. injection in tail vein, p = 0.05) | therapeutic index (random breed male mice; mouse, in vivo) | relative amount of AFC in comparison with control (in words) ([1]; 5-th day after injection) | relative amount of AFC ([1]; 5-th day after injection) | total AFC amount ([1]; 5-th day after injection) | immunogenic / immunostimulating activity, effect on humoral immune response (in words) [1] | Ki (human AFP) | n (number of binding sites per protein molecule) (human AFP; three independent determinations, Scatchard) | total AFC amount in comparison with control (in words) ([1]; 5-th day after injection) | lower relative amount of AFC in comparison with control group ([1]; 5-th day after injection, AFP 0.009 mg per capita i.v.)
CCCCC/C=C\C/C=C\C/C=C\C/C=C\CCCC(=O)NCCOP(=O)(O)O [N-AAP, N-arachidonoyl aminoethylphosphate] | 46 mg/kg; | 87 mg/kg | 63 (54.8 ÷ 72.5) mg/kg at p = 0.05; | 10 | not significantly changed | 342.2±28.5 per 10^6 cells | 36.0±8.7 10^3 per spleen | does not exhibit immunogenic activity; also recorded: no immunogenic activity | 333 nM |  |  | 
CCCCC/C=C\C/C=C\C/C=C\C/C=C\CCCC(=O)O [arachidonic acid, reference compound] |  |  |  |  |  |  |  |  |  | > 1.2 |  | 
B1 |  |  |  |  |  | 428.1±11.5 per 10^6 cells | 60.3±13.5 10^3 per spleen | no immunogenic activity |  |  |  | 
B2 |  |  |  |  |  | 255.5±13 per 10^6 cells | 23.6±1.5 10^3 per spleen | reduces or does not significantly effect the immunogenic characteristics of sheep erythrocytes |  |  | not significantly changed | 30%
